Numbers after ± are expanded uncertainties.
Experiment: molar heat capacity at saturation pressure
Details: Liquid, Large sample (1 g) DSC

Row | Structure (SMILES) | molar heat capacity (332.2 K) [J/K/mol] | molar heat capacity (342.1 K) [J/K/mol] | molar heat capacity (354.9 K) [J/K/mol] | molar heat capacity (361.8 K) [J/K/mol] | molar heat capacity (371.6 K) [J/K/mol] | molar heat capacity (381.5 K) [J/K/mol] | molar heat capacity (391.4 K) [J/K/mol] | molar heat capacity (401.3 K) [J/K/mol]
1 | Cc1cccc(C)c1 [1,3-dimethylbenzene] | 193.6 ± 3.9 | 197.6 ± 4 | 201.7 ± 4 | 205.7 ± 4.1 | 209.4 ± 4.2 | 213.6 ± 4.3 | 217.4 ± 4.3 | 221.7 ± 4.4
2 | CC(C)(C)c1ccccc1 [(1,1-dimethylethyl)benzene] | 259 ± 5.2 | 263.1 ± 5.3 | 268.3 ± 5.4 | 272.7 ± 5.5 | 278.4 ± 5.6 | 283 ± 5.7 | 288.8 ± 5.8 | 293.5 ± 5.9
3 | CCC(C)c1ccccc1 (stereo unspecified) [(1-methylpropyl)benzene] | 258.5 ± 5.2 | 262.6 ± 5.3 | 267.9 ± 5.4 | 272.5 ± 5.5 | 277.5 ± 5.6 | 282.4 ± 5.6 | 287.3 ± 5.7 | 292.1 ± 5.8
4 | CC(C)Cc1ccccc1 [(2-methylpropyl)benzene] | 259.1 ± 5.2 | 263.5 ± 5.3 | 268.8 ± 5.4 | 273.9 ± 5.5 | 278.6 ± 5.6 | 283 ± 5.7 | 289.1 ± 5.8 | 293.8 ± 5.9
5 | CCCCc1ccccc1 [butylbenzene] | 259.1 ± 5.2 | 263 ± 5.3 | 267.8 ± 5.4 | 272.9 ± 5.5 | 277.6 ± 5.6 | 283.9 ± 5.7 | 288 ± 5.8 | 293.9 ± 5.9
6 | CCc1ccccc1 [ethylbenzene] | 198.7 ± 4 | 202.4 ± 4 | 205.9 ± 4.1 | 210.2 ± 4.2 | 213.6 ± 4.3 | 218 ± 4.4 | 221.7 ± 4.4 | 
7 | CCCCCCCc1ccccc1 [heptylbenzene] | 353.6 ± 7.1 | 359.6 ± 7.2 | 364.9 ± 7.3 | 371.5 ± 7.4 | 377.2 ± 7.5 | 384.3 ± 7.7 | 389.9 ± 7.8 | 396.5 ± 7.9

The remaining lines, values ahead:

Row | molar heat capacity (332.2 K) [J/K/mol] | molar heat capacity (342.1 K) [J/K/mol] | molar heat capacity (354.9 K) [J/K/mol] | molar heat capacity (361.8 K) [J/K/mol] | molar heat capacity (371.6 K) [J/K/mol] | molar heat capacity (381.5 K) [J/K/mol] | molar heat capacity (391.4 K) [J/K/mol] | molar heat capacity (401.3 K) [J/K/mol] | Structure (SMILES)
8 | 640 ± 13 | 651.3 ± 13 | 662 ± 13 | 671.9 ± 13 | 683.3 ± 14 | 695.3 ± 14 | 710 ± 14 | 721.1 ± 14 | CCCCCCCCCCCCCCCCc1ccccc1 [hexadecylbenzene]
9 | 323.1 ± 6.5 | 328.8 ± 6.6 | 334.1 ± 6.7 | 340.1 ± 6.8 | 347.9 ± 7 | 353.8 ± 7.1 | 359.1 ± 7.2 | 366.1 ± 7.3 | CCCCCCc1ccccc1 [hexylbenzene]
10 | 229.1 ± 4.6 | 234.2 ± 4.7 | 238.5 ± 4.8 | 242.5 ± 4.9 | 246.7 ± 4.9 | 251.1 ± 5 | 255.2 ± 5.1 | 259.5 ± 5.2 | CC(C)c1ccccc1 [isopropylbenzene]
11 | 227.4 ± 4.5 | 231.4 ± 4.6 | 235.8 ± 4.7 | 240.1 ± 4.8 | 244.6 ± 4.9 | 249.3 ± 5 | 252 ± 5 |  | CCCc1ccccc1 [propylbenzene]

Source: the NIST ThermoML archive (doi:10.1021/je050273f)
